The record followed here is patent US9474703B2, “Antimicrobial compositions containing cationic active ingredients and quaternary sugar derived surfactants” (Ecolab USA Inc., priority 2010, dated 2016).

For assay [1], the system named is Staphylococcus aureus ATCC 6538. Nature of the assay: Time kill method (ASTM E 2315), S. aureus. Format: cell-based. The following applies: 0.5% ADBAC Quat. The method, then: (§1) (1) Determination of Time Kill Activity: • (a) The activity of antimicrobial compositions was measured by the time kill method [ASTM E 2315 Standard Guide for Assessment of Antimicrobial Activity Using a Time Kill Procedure], whereby the survival of challenged organisms exposed to an antimicrobial test composition is […] as a function of time. In this test, a diluted aliquot of the composition is brought into contact with a known population of test bacteria for a specified time period at a specified temperature. The test composition is neutralized at the end of the time period, which arrests the antimicrobial activity of the composition. The percent or, alternatively, log reduction from the original bacteria population is calculated. In general, the time kill method is known to those skilled in the art. In addition, comparative data on the foam profile of representative systems is shown. • (b) The composition can be tested at any concentration from 0.01-100%. The choice of which concentration to use is at the discretion of the investigator, and suitable concentrations are readily determined by those skilled in the art. All testing if performed in triplicate, the results are combined, and the average log reduction is reported. • (c) The choice of contact time period also is at the discretion of the investigator. Any contact time period can be chosen. Typical contact times range from 15 second to 5 minutes, with 30 seconds and 1 minute being typical contact times. The contact temperature also can be any temperature, typically room temperature, or about 25 degrees Celsius. • (d) The microbial suspension, or test inoculum, is prepared by growing a microbial culture on any appropriate solid media (e.g., agar). The microbial population then is washed from the agar with sterile physiological saline and the population of the microbial suspension is adjusted to about 10^8 colony forming units per ml (cfu/ml). • (e) The table below lists the test microbial cultures used in the following tests and includes the name of the bacteria, the ATCC (American Type Culture Collection) identification number, and the abbreviation for the name of the organism used hereafter.
(§2) S. aureus is a Gram positive bacteria, whereas, E. coli is a Gram negative bacteria.
(§3) The log reduction is calculated using the formula: Log reduction=log10(numbers control)−log10(test sample survivors).
(§4) The following table correlates percent reduction in microbial population to log reduction: […]

Assay [2] relates to Escherichia coli ATCC 112229. Nature of the assay: Time kill method (ASTM E 2315), E. coli. Format: cell-based. Particulars: 0.5% ADBAC Quat. The protocol: as §1, §2, §3, §4
The mark [3] stands for this setting: 30 seconds exposure, 1.95% w/w foam boosting agent (amine oxide), 1.25% Poly Trimoniumhydroxypropyl Cocoglucosides Chloride.
Where [4] appears, read: 30 seconds exposure, 3.0% w/w foam boosting agent (amine oxide), 1.25% Poly Trimoniumhydroxypropyl Cocoglucosides Chloride.
The mark [5] stands for this setting: 30 seconds exposure, 4.2% w/w foam boosting agent (amine oxide), 1.25% Poly Trimoniumhydroxypropyl Cocoglucosides Chloride.
[6] abbreviates: Table 10, 1.25% w/w quaternized sugar-derived surfactant, 1.95% Alkyl Dimethyl Amine Oxide.

Bounds are passed on as bounds.

For the substance Alkyl Dimethyl Amine Oxide, the “S. aureus Log Reduction” value in assay [1] (setting [3]), in assay [1] (setting [4]) and in assay [1] (setting [5]) was more than 5.5 each time. The “E. coli Log Reduction” value in assay [2] (setting [3]), in assay [2] (setting [4]) and in assay [2] (setting [5]) was more than 5.5 throughout.
In the case of “Cocoglucosides Hydroxypropyl-trimonium Chloride [TM8610]”, in assay [1] (setting [6]), the “S. aureus Log Reduction” value is more than 5.0. Further, in assay [2] (setting [6]), the “E. coli Log Reduction” value is more than 5.0.
On to “Lauridimonium-hydroxypropyl Cocoglucosides Chloride [Formula L8610]”, for which the “S. aureus Log Reduction” value in assay [1] (setting [6]) is reported as more than 5.0. Moreover, the “E. coli Log Reduction” value in assay [2] (setting [6]) is given as more than 5.0.
In the case of “Lauridimonium-hydroxypropyl Laurylglucosides Chloride [Formula L1210]”, in assay [1] (setting [6]), the “S. aureus Log Reduction” value was more than 5.0. The “E. coli Log Reduction” value in assay [2] (setting [6]) is more than 5.0.
With “Laurylglucosides Hydroxypropyl-trimonium Chloride [TM1212]”, the “S. aureus Log Reduction” value in assay [1] (setting [6]) is more than 5.0. Further, the “E. coli Log Reduction” value in assay [2] (setting [6]) is given as more than 5.0.
Take “Stearyldimonium-hydroxypropyl Laurylglucosides Chloride [Formula S1218]”: the “S. aureus Log Reduction” value in assay [1] (setting [6]) is given as more than 5.0. The “E. coli Log Reduction” value in assay [2] (setting [6]) is reported as more than 5.0.
